This passage reports IC50 results from US11566007B2, “Ras inhibitors” (Revolution Medicines, Inc., priority 2019, dated 2023).

By IC50 is commonly meant the point on the concentration scale where inhibition reaches its midpoint.

The target in one assay is KRAS G12S (Homo sapiens (Human), UniProt P01116+P62937, G12S). Kind of assay: Ras-Raf (BRAF RBD) disruption / FRET / MOA assay, KRAS G12S. Format: biochemical. Particulars: Ras-Raf disruption/FRET/MOA assay; class symbols; read-out: KRAS G12S FRET data IC50. In a few lines:
(§1)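 Ras:RAF disruption was scored as a fall in TR-FRET ratio relative to DMSO. Compound ranged in 3-fold steps over 10 points from 30 μM final; incubation ran 3 h at 25° C, detection antibodies a further 1.5 h. Reported as IC50.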

Another assay has as its target K-Ras G12C (Homo sapiens (Human), UniProt P01116+P62937, G12C). The experiment in a line: Ras-Raf (BRAF RBD) disruption / FRET / MOA assay, KRAS G12C. Format: biochemical. Conditions: KRAS G12C; Ras-Raf disruption/FRET/MOA assay; read-out: IC50* KRAS G12C FRET data. In a few lines:
as §1

For the next assay, the target named is NRAS G12C (Homo sapiens (Human), UniProt P01111+P62937, G12C). Kind of assay: Ras-Raf (BRAF RBD) disruption / FRET / MOA assay, NRAS G12C. Format: biochemical. Conditions: read-out: IC50* NRAS G12C FRET data. In a few lines:
as §1

The target in a further assay is NRAS Q61K (Homo sapiens (Human), UniProt P01111+P62937, Q61K). Kind of assay: Ras-Raf (BRAF RBD) disruption / FRET / MOA assay, NRAS Q61K. Format: biochemical. Particulars: NRAS Q61K; Ras-Raf disruption/FRET/MOA assay; read-out: IC50* NRAS Q61K FRET data. In a few lines:
(§2)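 TR-FRET disruption of nucleotide-loaded Ras binding to BRAF RBD via compound-driven ternary complex with cyclophilin A. Compound as 10-point 3-fold series from 30 μM final, 3 h at 25° C, then anti-His Eu-W1024 (10 nM) and anti-GST allophycocyanin (50 nM) for 1.5 h. IC50 from decreased FRET ratio versus DMSO.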

The next assay concerns the target KRAS G12D (Homo sapiens (Human), UniProt P01116+P62937, G12D). The experiment in a line: Ras-Raf (BRAF RBD) disruption / FRET / MOA assay, KRAS G12D. Conditions: Ras-Raf disruption/FRET/MOA assay; class symbols; read-out: KRAS G12D FRET data IC50. In kind it is biochemical. In a few lines:
as §1

In the next assay the test system is NCI-H358 (K-Ras G12C). The experiment in a line: CellTiter-Glo cell viability assay, NCI-H358. In kind it is cell-based, human. Conditions: Homo sapiens, NCI-H358, 120 h, NCI-H358, 5-day treatment; class symbols; read-out: Additional H358 Cell Viability assay data (K-Ras G12C, IC50). In a few lines:
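Four-parameter logistic fits were applied to luminescence data normalized against DMSO-treated wells. Readings were taken on day 5 following direct compound addition, after roughly 30 minutes at room temperature.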
(ATP-based viability assays read luminescence as a measure of living cells.)

The next assay has as its target NRAS Q61R (Homo sapiens (Human), UniProt P01111+P62937, Q61R). Kind of assay: Ras-Raf (BRAF RBD) disruption / FRET / MOA assay, NRAS Q61R. Format: biochemical. Particulars: NRAS Q61R; Ras-Raf disruption/FRET/MOA assay; read-out: IC50* NRAS Q61R FRET data. In a few lines:
as §2

Chain of KRAS G12S (P01116-2 other isoform, or with tags, fused parts or gaps G12S): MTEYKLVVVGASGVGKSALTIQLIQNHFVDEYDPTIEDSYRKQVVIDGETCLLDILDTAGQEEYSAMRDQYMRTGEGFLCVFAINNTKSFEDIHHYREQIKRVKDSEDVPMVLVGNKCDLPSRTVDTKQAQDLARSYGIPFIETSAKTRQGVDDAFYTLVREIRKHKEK
Chain of KRAS G12S (P62937 whole entry): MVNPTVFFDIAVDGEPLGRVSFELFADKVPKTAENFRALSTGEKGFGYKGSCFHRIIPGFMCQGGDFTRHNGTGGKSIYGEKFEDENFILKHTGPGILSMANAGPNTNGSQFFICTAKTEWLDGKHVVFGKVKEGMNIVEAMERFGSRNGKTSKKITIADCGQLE
Chain of NRAS G12C (P01111 whole entry G12C): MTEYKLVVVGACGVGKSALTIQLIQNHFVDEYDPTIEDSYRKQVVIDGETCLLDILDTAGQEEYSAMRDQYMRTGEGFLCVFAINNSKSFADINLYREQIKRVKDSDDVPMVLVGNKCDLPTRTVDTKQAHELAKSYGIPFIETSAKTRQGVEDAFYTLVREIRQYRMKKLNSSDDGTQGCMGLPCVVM
Chain of NRAS G12C (P62937 whole entry): as the sequence (P62937 whole entry) above
Chain of NRAS Q61R (P01111 whole entry Q61R): as the sequence (P01111 whole entry G12C) above, with C12G, Q61R counted along it
Chain of NRAS Q61R (P62937 whole entry): as the sequence (P62937 whole entry) above
Chain of NRAS Q61K (P01111 whole entry Q61K): as the sequence (P01111 whole entry G12C) above, with C12G, Q61K counted along it
Chain of NRAS Q61K (P62937 whole entry): as the sequence (P62937 whole entry) above
Chain of K-Ras G12C (P01116-2 other isoform, or with tags, fused parts or gaps G12C): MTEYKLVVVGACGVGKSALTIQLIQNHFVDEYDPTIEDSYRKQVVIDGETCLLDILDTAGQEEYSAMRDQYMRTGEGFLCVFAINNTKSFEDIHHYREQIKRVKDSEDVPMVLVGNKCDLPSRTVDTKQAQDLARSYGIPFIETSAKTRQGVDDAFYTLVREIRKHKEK
Chain of K-Ras G12C (P62937 whole entry): as the sequence (P62937 whole entry) above
Chain of KRAS G12D (P01116-2 other isoform, or with tags, fused parts or gaps G12D): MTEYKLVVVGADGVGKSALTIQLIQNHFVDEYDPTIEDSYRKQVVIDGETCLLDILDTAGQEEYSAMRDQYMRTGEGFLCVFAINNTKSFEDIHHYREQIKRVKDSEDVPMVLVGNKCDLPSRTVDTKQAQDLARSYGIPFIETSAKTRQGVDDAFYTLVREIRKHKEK
Chain of KRAS G12D (P62937 whole entry): as the sequence (P62937 whole entry) above

For `CCn1c(-c2cccnc2[C@H](C)OC)c2c3cc(ccc31)-c1cccc(c1)C[C@H](NC(=O)[C@H](C(C)C)N1CO[C@@]3(CCN(C(=O)/C=C/CN(C)C)C3)C1=O)C(=O)N1CCC[C@H](N1)C(=O)OCC(C)(C)C2` (atropisomer, axis not shown) [Example A558], the IC50 lay in the range of 0.1 to 1 µM on KRAS G12S; 0.01 to 0.1 µM on K-Ras G12C; 0.01 to 0.1 µM at NRAS G12C; 1 to 10 µM at NRAS Q61K; 1 to 10 µM at KRAS G12D; 0.01 to 0.1 µM with NCI-H358 (K-Ras G12C). In addition, the IC50 on NRAS Q61R lay within 1 to 10 µM.
With `CO[C@@H](COC1CN(C(=O)C#CC(C)(C)N(C)C)C1)C(=O)N[C@H]1Cc2coc(n2)-c2ccc3c(c2)c(c(-c2cccnc2[C@H](C)OC)n3CC(F)(F)F)CC(C)(C)COC(=O)[C@@H]2CCCN(N2)C1=O` (atropisomer, axis not shown) [Example A579], the IC50 on KRAS G12S is 1 to 10 µM; at K-Ras G12C, less than 0.01 µM; on NRAS G12C, less than 0.01 µM; at NRAS Q61K, more than 10 µM; at KRAS G12D it was more than 10 µM; in the assay with NCI-H358 (K-Ras G12C), less than 0.01 µM. For the same molecule, the IC50 at NRAS Q61R is more than 10 µM.
As for `C=CC(=O)N1CCO[C@H]2CCN(C(=O)N(C)[C@H](C(=O)N[C@H]3Cc4nc(cs4)-c4ccc5c(c4)c(c(-c4cccnc4[C@H](C)OC)n5CC)CC(C)(C)COC(=O)[C@@H]4CCCN(N4)C3=O)C(C)C)C[C@H]21` (atropisomer, axis not shown) [Example A580], the IC50 on KRAS G12S was 0.1 to 1 µM; on K-Ras G12C, 0.01 to 0.1 µM; at NRAS G12C it was 0.01 to 0.1 µM; at NRAS Q61K it was 0.01 to 0.1 µM; on KRAS G12D, 1 to 10 µM; with NCI-H358 (K-Ras G12C), 0.01 to 0.1 µM. The IC50 on NRAS Q61R is 0.1 to 1 µM.
In the case of `C=CC(=O)NCCN1CCN(C(=O)N(C)[C@H](C(=O)N[C@H]2Cc3nc(cs3)-c3ccc4c(c3)c(c(-c3cccnc3[C@H](C)OC)n4CC)CC(C)(C)COC(=O)[C@@H]3CCCN(N3)C2=O)C(C)C)CC1` (atropisomer, axis not shown) [Example A582], the IC50 at KRAS G12S was in the range of 0.1 to 1 µM; on K-Ras G12C it was 0.1 to 1 µM; on NRAS G12C it was 0.01 to 0.1 µM; at NRAS Q61K it was 0.01 to 0.1 µM; on KRAS G12D it was 1 to 10 µM; in the assay with NCI-H358 (K-Ras G12C), 0.01 to 0.1 µM. The IC50 on NRAS Q61R was 0.1 to 1 µM.
As to `CCn1c(-c2cccnc2[C@H](C)OC)c2c3cc(ccc31)-c1cccc(c1)C[C@H](NC(=O)[C@@H](CO[C@@H]1CCN(C(=O)C#CC(C)(C)N(C)C)C1)C(C)C)C(=O)N1CCC[C@H](N1)C(=O)OCC(C)(C)C2` (atropisomer, axis not shown) [Example A584], the IC50 on KRAS G12S is more than 10 µM; at K-Ras G12C, 0.01 to 0.1 µM; on NRAS G12C, 0.01 to 0.1 µM; at NRAS Q61K it was more than 10 µM; on KRAS G12D it was more than 10 µM; with NCI-H358 (K-Ras G12C), less than 0.01 µM. Also, on NRAS Q61R, the concentration for half-maximal inhibition (IC50) is more than 10 µM.
In the case of `CCn1c(-c2cccnc2[C@H](C)OC)c2c3cc(ccc31)-c1cc(CF)cc(c1)C[C@H](NC(=O)[C@@H](COC1CN(C(=O)C#CC(C)(C)N(C)C)C1)C(C)C)C(=O)N1CCC[C@H](N1)C(=O)OCC(C)(C)C2` (atropisomer, axis not shown) [Example A587], the IC50 at KRAS G12S is more than 10 µM; on K-Ras G12C, 0.01 to 0.1 µM; on NRAS G12C, 0.01 to 0.1 µM; on NRAS Q61K, more than 10 µM; on KRAS G12D it was more than 10 µM; in the assay on NCI-H358 (K-Ras G12C), less than 0.01 µM. Further, the half-maximal inhibitory concentration (IC50) at NRAS Q61R was more than 10 µM.
Consider `CO[C@@H](C)c1ncccc1-c1c2c3cc(ccc3n1CC(F)(F)F)-c1cc(CF)cc(c1)C[C@H](NC(=O)[C@@H](COC1CN(C(=O)C#CC(C)(C)N(C)C)C1)C(C)C)C(=O)N1CCC[C@H](N1)C(=O)OCC(C)(C)C2` (atropisomer, axis not shown) [Example A589], for which the IC50 at KRAS G12S is more than 10 µM; at K-Ras G12C, 0.01 to 0.1 µM; at NRAS G12C, 0.01 to 0.1 µM; at NRAS Q61K it was more than 10 µM; at KRAS G12D, more than 10 µM; in the assay with NCI-H358 (K-Ras G12C) it was less than 0.01 µM. Moreover, at NRAS Q61R, the IC50 is more than 10 µM.
